Measured values published in patent publication US4299839A, “Novel pesticides and pesticidal compositions cyclopropanecarboxylates and pesticidal method” (priority 1979, dated 1981).

How the values were obtained:
[1] = test system: housefly (Musca domestica); assay: Mortality test against houseflies by topical application; assay type: in vivo; conditions: 24 h
Method: Each test compound was accurately weighed and a 1% solution and an 0.1% solution of the sample in acetone were prepared. A 1 μl portion of either of the above solutions was micropipetted onto the thoracic dorsal part of each female adult housefly (Musca domestica) under ether anaesthesia and the fly was released in a high-walled dish together with feed. The dish was covered with a metal-wire net and maintained at 25° C. After 24 hours, the test flies were inspected for deaths and the mortality (%) was calculated. Thirty test flies were used per concentration group.

Fish Toxicity Test = assay type: in vivo; conditions: guppy, water; rank; 50% of female guppies killed during 48 hours, 20° C.; [Mixture] = cis/trans 50/50; read-out: TLm (medium tolerance limit)
Method: The mixture was stirred well to prepare a test water. Ten female guppies from 3 to 4 months of age were released into the test water and maintained at 20° C. The concentration of the test compound at which 50% of the guppies were killed during the ensuring 48 hours was determined. [This concentration is referred to as TLm (medium tolerance limit, ppm)].
A rank corresponds to TLm of not less than 10 ppm.
B rank corresponds to TLm of 0.5-10 ppm.
C rank corresponds to TLm of not more than 0.5 ppm.

SMILES	mortality at 1 µg/fly [1] [%]	mortality at 10 µg/fly [1] [%]	LC50 at 48 h (Fish Toxicity Test) [µg/mL]
C=CCC1=C(C)C(OC(=O)C2C(CC(Cl)(Cl)Cl)C2(C)C)CC1=O (stereo not drawn) [Compound (38) [Mixture], Allethronyl 2,2-dimethyl-3-(2,2,2-trichloroethyl)cyclopropanecarboxylate]	6.7	100	0.5 to 10
CC(Cl)(Cl)CC1C(C(=O)OCc2cccc(Oc3ccccc3)c2)C1(C)C (stereo not drawn) [Compound (5) [Mixture], 3-Phenoxybenzyl 2,2-dimethyl-3-(2,2-dichloropropyl)cyclopropanecarboxylate]	100	100	
CC1(C)C(C=C(Cl)Cl)C1C(=O)OC(C#N)c1cccc(Oc2ccccc2)c1 (stereo not drawn) [Cypermethrin, 3-phenoxy-α-cyanobenzyl 2,2-dimethyl-3-(2,2-dichlorovinyl)cyclopropanecarboxylate, reference compound]			≤ 0.5
CC1(C)[C@H](C(=O)OCc2cccc(Oc3ccccc3)c2)[C@@H]1CC(Cl)(Cl)Cl (relative stereo) [Compound (1) [Cis-isomer], 3-Phenoxybenzyl 2,2-dimethyl-3-(2,2,2-trichloroethyl)cyclopropanecarboxylate]	96.7	100	≥ 10
CC1(C)C(C=C(Cl)Cl)C1C(=O)OCc1cccc(Oc2ccccc2)c1 (racemic) [Permethrin, 3-phenoxybenzyl (+)-cis,trans-2,2-dimethyl-3-(2,2-dichlorovinyl)-cyclopropanecarboxylate, reference compound]			≤ 0.5
C#CC(OC(=O)C1C(CC(Br)(Br)Br)C1(C)C)c1cccc(Oc2ccccc2)c1 (stereo not drawn) [Compound (12) [Mixture], 3-Phenoxy-α-ethynylbenzyl 2,2-dimethyl-3-(2,2,2-tribromoethyl)cyclopropanecarboxylate]			≥ 10
CC(C)=CC1C(C(=O)OCc2coc(Cc3ccccc3)c2)C1(C)C (stereo not drawn) [Resmethrin, 5-benzyl-3-furylmethyl chrysanthemate, reference compound]			≤ 0.5
CC1(C)C(CC(Cl)(Cl)Cl)C1C(=O)OCc1coc(Cc2ccccc2)c1 (stereo not drawn) [Compound (28) [Mixture], 5-Benzyl-3-furylmethyl 2,2-dimethyl-3-(2,2,2-trichloroethyl)cyclopropanecarboxylate]	86.7	100	≥ 10
CC1(C)C(CC(Cl)(Cl)Cl)C1C(=O)OCc1cccc(Oc2ccc(Cl)cc2)c1 (stereo not drawn) [Compound (2) [Mixture], 3-(4-Chlorophenoxy)benzyl 2,2-dimethyl-3-(2,2,2-trichloroethyl)cyclopropanecarboxylate]	0	86.7	≥ 10
C#CC(OC(=O)C1C(CC(Cl)(Cl)Cl)C1(C)C)c1cccc(Oc2ccc(Cl)cc2)c1 (stereo not drawn) [Compound (21) [Mixture], 3-(4-Chlorophenoxy)-α-ethynylbenzyl 2,2-dimethyl-3-(2,2,2-trichloroethyl)cyclopropanecarboxylate]	60	93.3	≥ 10
CC1(C)C(CC(Cl)(Cl)Cl)C1C(=O)OC(C#N)c1cccc(Oc2ccc(Cl)cc2)c1 (stereo not drawn) [Compound (15) [Mixture], 3-(4-Chlorophenoxy)-α-cyanobenzyl 2,2-dimethyl-3-(2,2,2-trichloroethyl)cyclopropanecarboxylate]	86.7	100	≥ 10
CC(Cl)(Cl)CC1C(C(=O)OC(C#N)c2cccc(Oc3ccccc3)c2)C1(C)C (stereo not drawn) [Compound (9) [Mixture], 3-Phenoxy-α-cyanobenzyl 2,2-dimethyl-3-(2,2-dichloropropyl)cyclopropanecarboxylate]	100	100	
CC(C)C(C(=O)OC(C#N)c1cccc(Oc2ccccc2)c1)c1ccc(Cl)cc1 (stereo not drawn) [Fenvalerate, 3-phenoxy-α-cyanobenzyl α-(4-chlorophenyl)isovalerate, reference compound]			≤ 0.5
